Experimental data as given in patent publication US8709457B2, “Hydroxylated amide skin moisturizer” (L'Oreal, priority 2006, dated 2014).

System: Stratum Corneum
Test: Dermometer, mechanical measurement of the plasticizing effect (elastic modulus of Stratum Corneum)
Details: for plasticizing effect on the stratum corneum (in words) / ranking of plasticizing effect among tested compounds: 3% aqueous solution, 30° C., 75% RH; for Relative variation in the elastic modulus of Stratum Corneum, 2H / Relative variation in the elastic modulus of Stratum Corneum, 20H: 30° C. and 75% relative humidity, products tested at 3% in water (controls in water), mean ± standard deviation, 10 samples; for Relative variation in the elastic modulus of Stratum Corneum, 2H: 2 h after application; for Relative variation in the elastic modulus of Stratum Corneum, 20H: 20 h after application
Method: A test was performed to evaluate the moisturizing potential of the compounds of the invention which are formulated in a 3% aqueous solution.
Dermometer, mechanical measurement of the plasticizing effect (described by J de Rigal, J-L. Leveque, International Journal of Cosmetic Science, 1982, 247-260).
The tests carried out were performed under the standard conditions on stratum corneum in a chamber at controlled temperature and humidity (T=30° C. and RH=75%). The elastic modulus measurements are performed on each control test specimen and then 2 hours and 20 hours after application of the treatment. The relative variation in the modulus makes it possible to assess the plasticizing effect of the active agent on the Stratum Corneum.
The mean and the standard deviation were calculated on 10 stratum corneum samples.

Row | SMILES | plasticizing effect on the stratum corneum (in words) | Relative variation in the elastic modulus of Stratum Corneum, 2H | Relative variation in the elastic modulus of Stratum Corneum, 20H | ranking of plasticizing effect among tested compounds
1 | NC(=O)[C@H](O)[C@H](O)CO [Compound 3, (2R,3R)-2,3,4-Trihydroxybutanamide] | significant plasticizing effect | −32 +/− 18% | −34 +/− 15% | –
2 | C[Si](C)(C)CNC(=O)[C@H](O)[C@H](O)CO [Compound 5, (2R,3R)-2,3,4-trihydroxy-N-[(trimethylsilyl)methyl]butanamide] | significant plasticizing effect | −34 +/− 15% | −31 +/− 18% | –
3 | O=C(NCCO)[C@H](O)[C@H](O)CO [Compound 9, (2R,3R)-2,3,4-trihydroxy-N-(2-hydroxyethyl)butanamide] | significant plasticizing effect | −26 +/− 14% | −27 +/− 16% | –
4 | O=C([C@H](O)[C@H](O)CO)N(CCO)CCO [Compound 14, (2R,3R)-2,3,4-trihydroxy-N,N-bis(2-hydroxyethyl)butanamide] | significant plasticizing effect | −23 +/− 18% | −49 +/− 14% | most effective
5 | CCN(CCO)C(=O)[C@H](O)[C@H](O)CO [Compound 15, (2R,3R)—N-ethyl-2,3,4-trihydroxy-N-(2-hydroxyethyl)butanamide] | significant plasticizing effect | -28 +/− 10% | −48 +/− 12% | most effective
6 | OCC(O)CO [Glycerol, reference compound] | – | −41 ± 12% | −51 ± 15% | –
7 | NC(N)=O [Urea, reference compound] | – | −72 ± 9% | −83 ± 7% | –
